Each molecule was assayed against T1, human TPO receptor (hTPOR) (Homo sapiens, UniProt P40238) (assay: Thrombopoietic activity: proliferation of TPO dependent BaF/hTPOR cells (WST-1, absorbance at 450 nm)). Conditions: 20 h + 4 h WST-1, ED50 = half concentration of the concentration showing the maximum thrombopoietic activity, Table 1.
T1 construct: expressed in transfected cells; host or cells: BaF-B03 (murine IL-3 dependent cell line)
T1 sequence (P40238 26-635): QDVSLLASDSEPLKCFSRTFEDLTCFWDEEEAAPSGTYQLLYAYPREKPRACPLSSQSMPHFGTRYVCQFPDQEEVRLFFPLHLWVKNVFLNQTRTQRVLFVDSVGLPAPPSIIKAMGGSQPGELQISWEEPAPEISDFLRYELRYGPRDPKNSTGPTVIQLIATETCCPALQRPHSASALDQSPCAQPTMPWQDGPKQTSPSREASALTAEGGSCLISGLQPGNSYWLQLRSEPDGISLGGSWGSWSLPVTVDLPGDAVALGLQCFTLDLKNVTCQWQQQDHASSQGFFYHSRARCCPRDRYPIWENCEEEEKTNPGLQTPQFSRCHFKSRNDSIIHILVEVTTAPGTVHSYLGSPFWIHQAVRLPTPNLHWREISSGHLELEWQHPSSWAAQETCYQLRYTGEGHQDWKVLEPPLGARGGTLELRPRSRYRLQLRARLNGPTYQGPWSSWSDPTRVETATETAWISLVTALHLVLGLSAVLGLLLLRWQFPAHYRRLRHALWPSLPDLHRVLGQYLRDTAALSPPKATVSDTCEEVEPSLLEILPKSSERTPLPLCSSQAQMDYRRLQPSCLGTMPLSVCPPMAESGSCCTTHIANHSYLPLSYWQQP
Assay type: cell-based
Method in brief: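 Proliferation read-out: WST-1 absorbance at 450 nm after 20 h compound exposure plus 4 h reagent, using IL-3-deprived BaF/hTPOR cells (5×10^4 per well) dependent on human TPO receptor signalling. ED50 defined as half the concentration producing maximal activity.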

SMILES	EC50 [nM]
CCCCCC(OC)c1cccc(-c2csc(NC(=O)c3cc(Cl)c(C=C(C)C(=O)O)c(Cl)c3)n2)c1F (centres unmarked) [Compound B58, 3-(2,6-dichloro-4-{4-[2-fluoro-3-(1-methyloxyhexyl)phenyl]thiazol-2-ylcarbamoyl}phenyl)-2-methylacrylic acid]	1.5
CC(=Cc1c(F)cc(C(=O)Nc2nc(-c3cccc(CCCOCC(C)(C)C)c3F)cs2)cc1F)C(=O)O [Compound B20]	0.81
CCCCCOC(C)c1cccc(-c2csc(NC(=O)c3cc(F)c(C=C(C)C(=O)O)c(F)c3)n2)c1F (centres unmarked) [Compound B31, 3-(2,6-difluoro-4-{4-[2-fluoro-3-(1-n-pentyloxyethyl)phenyl]thiazol-2-ylcarbamoyl}phenyl)-2-methylacrylic acid]	0.85
CCCCOCCCc1cccc(-c2csc(NC(=O)c3cc(F)c(C=C(C)C(=O)O)c(F)c3)n2)c1F [Compound B49, 3-(4-{4-[3-(3-n-butyloxypropyl)-2-fluorophenyl]thiazol-2-ylcarbamoyl}-2,6-difluorophenyl)-2-methylacrylic acid]	1.3
CCCCCCCOCc1cccc(-c2csc(NC(=O)c3cc(F)c(/C=C(\C)C(=O)O)c(F)c3)n2)c1OC [Compound B1990, (E)-3-{2,6-difluoro-4-[4-(3-heptyloxymethyl-2-methyloxyphenyl)thiazol-2-ylcarbamoyl]phenyl}-2-methylacrylic acid]	12.1
CCCCOC(CCC)c1cccc(-c2csc(NC(=O)c3cc(Cl)c(C=C(C)C(=O)O)c(Cl)c3)n2)c1F (centres unmarked) [Compound B79, 3-(4-{4-[3-(1-n-butyloxybutyl)-2-fluorophenyl]thiazol-2-ylcarbamoyl}-2,6-dichlorophenyl)-2-methylacrylic acid]	0.77
COc1c(COCC(C)(C)C)cccc1-c1csc(NC(=O)c2cc(Cl)c(/C=C(\C)C(=O)O)c(Cl)c2)n1 [Compound B2021, (E)-3-(2,6-dichloro-4-{4-[3-(2,2-dimethylpropyloxymethyl)-2-methyloxyphenyl]thiazol-2-ylcarbamoyl}phenyl)-2-methylacrylic acid]	6.09
CCOCCCCOC(CC)c1cccc(-c2csc(NC(=O)c3cc(Cl)c(C=C(C)C(=O)O)c(Cl)c3)n2)c1F (centres unmarked) [Compound B65, 3-[2,6-dichloro-4-(4-{3-[1-(4-ethyloxybutyloxy)propyl]-2-fluorophenyl]thiazol-2-ylcarbamoyl}phenyl)-2-methylacrylic acid]	1.04
CCC(CC)COCCc1cccc(-c2csc(NC(=O)c3cc(F)c(/C=C(\C)C(=O)O)c(F)c3)n2)c1OC [Compound B1959, (E)-3-[4-(4-{3-[2-(2-ethylbutyloxy)ethyl]-2-methyloxyphenyl}thiazol-2-ylcarbamoyl)-2,6-difluorophenyl]-2-methylacrylic acid]	11.3
CCCCC(OCCC)c1cccc(-c2csc(NC(=O)c3cc(F)c(C=C(C)C(=O)O)c(F)c3)n2)c1F (centres unmarked) [Compound B41, 3-(2,6-difluoro-4-{4-[2-fluoro-3-(1-n-propyloxypentyl)phenyl]thiazol-2-ylcarbamoyl}phenyl)-2-methylacrylic acid]	0.67
CCCCCCCCCCC(OC)c1cccc(-c2csc(NC(=O)c3cc(Cl)c(/C=C(\OC)C(=O)O)c(Cl)c3)n2)c1OC (centres unmarked) [Compound B1438, (Z)-3-(2,6-dichloro-4-{4-[2-methyloxy-3-(1-methyloxyundecyl)phenyl]thiazol-2-ylcarbamoyl}phenyl)-2-methyloxyacrylic acid]	6.3
CC(=Cc1c(F)cc(C(=O)Nc2nc(-c3cccc(CCCOCCCC(C)C)c3F)cs2)cc1F)C(=O)O [Compound B39, 3-[2,6-difluoro-4-(4-(2-fluoro-3-[3-(4-methylpentyloxy)propyl]phenyl}thiazol-2-ylcarbamoyl)phenyl]-2-methylacrylic acid]	1.01
CCCCOCCCC(OCCCC)c1cccc(-c2csc(NC(=O)c3cc(F)c(C=C(C)C(=O)O)c(F)c3)n2)c1F (centres unmarked) [Compound B51, 3-(4-{4-[3-(1,4-dibutyloxybutyl)-2-fluorophenyl]thiazol-2-ylcarbamoyl}-2,6-difluorophenyl)-2-methylacrylic acid]	0.68
CCCCCCCCCCC(OC)c1cccc(-c2csc(NC(=O)c3cc(Cl)c(C=C(C)C(=O)O)c(Cl)c3)n2)c1F (centres unmarked) [Compound B91, 3-(2,6-dichloro-4-{4-[2-fluoro-3-(1-methyloxyundecyl)phenyl]thiazol-2-ylcarbamoyl)phenyl]-2-methylacrylic acid]	1.02
CC(=Cc1c(F)cc(C(=O)Nc2nc3c(s2)CCc2c(CCCOCC(C)(C)C)cccc2-3)cc1F)C(=O)O [Compound A6, 3-(2,6-difluoro-4-{4,5-dihydro-6-[3-(2,2-dimethylpropyloxy)propyl]naphtho[1,2-d]thiazol-2-ylcabamoyl}phenyl)-2-methylacrylic acid]	1.04
CCCCC(OCC)c1cccc(-c2csc(NC(=O)c3cc(F)c(C=C(C)C(=O)O)c(F)c3)n2)c1F (centres unmarked) [Compound B27, 3-(2,6-difluoro-4-{4-[3-(1-ethyloxypentyl)-2-fluorophenyl]thiazol-2-ylcarbamoyl}phenyl)-2-methylacrylic acid]	0.75

Same assay, conditions: 20 h + 4 h WST-1, ED50 = half concentration of the concentration showing the maximum thrombopoietic activity, Table 2

SMILES	EC50 [nM]
CCCOCCCc1cccc(-c2nc(NC(=O)c3cc(Cl)c(/C=C(\C)C(=O)O)c(Cl)c3)sc2OC)c1 [Compound B1863, (E)-3-(2,6-dichloro-4-{5-methyloxy-4-[3-(3-propyloxypropyl)phenyl]thiazol-2-ylcarbamoyl}phenyl)-2-methylacrylic acid]	22.8

— patent US7601746B2 (Shionogi & Co., Ltd., priority 2003, dated 2009)
